Experimental data published in ChEMBL document CHEMBL1126088, “Conformational analysis of dopamine D-2 receptor antagonists of the benzamide series in relation to a recently proposed D-2 receptor-interaction model” (J Med Chem, 1992).

Experiment: Effective dose of the compound
Format: functional

Row | Structure (SMILES) | ED50 [mg/kg]
1 | COc1cc(N)c(Cl)cc1C(=O)NC1CCN2CC(c3ccccc3)CC2C1 (stereo not drawn) | 0.024
2 | COc1cc(N)c(Cl)cc1C(=O)NC1CCN(Cc2ccccc2)CC1 [CLEBOPRIDE] | 0.037
3 | CCN(CC)CCNC(=O)c1cc(Cl)c(N)cc1OC [METOCLOPRAMIDE] | 0.75
